Source: US9617258B2, “Pyrrolo[2,3-d]pyrimidinyl, pyrrolo[2,3-b]pyrazinyl and pyrrolo[2,3-d]pyridinyl acrylamides” (Pfizer Inc., priority 2013, dated 2017)

Assay: Stability of JAK3 covalent inhibitors in human whole blood;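 note: parent compound remaining over incubation time quantified by LC-MS/MS as peak area ratio against an internal standard, using pooled K2-EDTA blood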
Format: in vitro ADME
Conditions: both sexes, whole blood, 37° C., read-out: Human blood stability t1/2
Text: Stability of JAK3 Covalent Inhibitors in Rat and Human Whole Blood
Rat blood was collected from 3 male Sprague-Dawley rats (200-250 g, Charles River Laboratories) and pooled for each study. Human blood was collected from one male and one female healthy subjects at the Occupational Health & Wellness Center at Pfizer, Groton, CT and pooled for each study. Both rat and human blood was collected freshly into K2-EDTA tubes and kept on ice. An aliquot of the blood was transferred to microtubes and pre-warmed for 10 min at 37° C. using a heat block. […] An aliquot of the incubation mixture was removed at designated time points during the course of the incubation, mixed with an aliquot of acetonitrile containing an internal standard, vortexed and centrifuged. The resulting supernatants were removed and subjected to LC-MS/MS analyses to determine parent compound concentrations. Peak area ratios of the parent compound vs the internal standard were used to determine the % of parent compound remaining vs incubation time.

Row | Structure (SMILES) | half-life at 1 μM
1 | C=CC(=O)N1C[C@H](C)C[C@H](Nc2ncnc3[nH]ccc23)C1 [Example 128, 1-[(3R,5S)-3-Methyl-5-(7H-pyrrolo[2,3-d]pyrimidin-4-ylamino)piperidin-1-yl]prop-2-en-1-one] | 304 min
2 | C=CC(=O)N1CCC(Nc2cnc3[nH]cc(C(=O)NC(C)(C)CC)c3n2)CC1 [Example 276, 2-[(1-acryloylpiperidin-4-yl)amino]-N-(2-methylbutan-2-yl)-5H-pyrrolo[2,3-b]pyrazine-7-carboxamide] | 225 min
3 | C=CC(=O)N1CCC(Nc2cnc3[nH]cc(C(=O)NCCC(F)(F)F)c3n2)CC1 [Example 246, 2-[(1-acryloylpiperidin-4-yl)amino]-N-(3,3,3-trifluoropropyl)-5H-pyrrolo[2,3-b]pyrazine-7-carboxamide] | > 360 min
4 | C=CC(=O)N1CC[C@@H](C)[C@H](Nc2ncnc3[nH]ccc23)C1 [Example 112, 1-[(3S,4R)-4-Methyl-3-(7H-pyrrolo[2,3-d]pyrimidin-4-ylamino)piperidin-1-yl]prop-2-en-1-one] | 142 min
5 | C=CC(=O)N1C[C@@H](C)C[C@H](Nc2ncnc3[nH]ccc23)C1 [Example 75, 1-((3S,5S)-3-((7H-Pyrrolo[2,3-d]pyrimidin-4-yl)amino)-5-methylpiperidin-1-yl)prop-2-en-1-one] | > 360 min
6 | C=CC(=O)N1CCC(Nc2cnc3[nH]cc(C(=O)NC(C)C)c3n2)CC1 [Example 168, 2-[(1-acryloylpiperidin-4-yl)amino]-N-(propan-2-yl)-5H-pyrrolo[2,3-b]pyrazine-7-carboxamide] | > 350 min
7 | C=CC(=O)N1CCC(Nc2cnc3[nH]cc(C(=O)NC4CCCC4(F)F)c3n2)CC1 (centres unmarked) [Example 234, 2-[(1-acryloylpiperidin-4-yl)amino]-N-(2,2-difluorocyclopentyl)-5H-pyrrolo[2,3-b]pyrazine-7-carboxamide] | 296 min
8 | C=CC(=O)N1CCN(c2cnc3[nH]cc(C(=O)NC(C)C)c3n2)C[C@@H]1CC [Example 299, 2-[(3S)-4-acryloyl-3-ethylpiperazin-1-yl]-N-(propan-2-yl)-5H-pyrrolo[2,3-b]pyrazine-7-carboxamide] | 199 min
9 | C=CC(=O)N1C[C@@H](Nc2ncnc3[nH]ccc23)CC[C@H]1CO [Example 117, 1-[(2S,5S)-2-(Hydroxymethyl)-5-(7H-pyrrolo[2,3-d]pyrimidin-4-ylamino)piperidin-1-yl]prop-2-en-1-one] | > 360 min
10 | C=CC(=O)N1CC[C@@H](Nc2cnc3[nH]cc(C(=O)NC(C)C)c3n2)[C@H](F)C1 [Example 291, 2-{[(3R,4R)-1-acryloyl-3-fluoropiperidin-4-yl]amino}-N-(propan-2-yl)-5H-pyrrolo[2,3-b]pyrazine-7-carboxamide] | 196 min
11 | C=CC(=O)N1CCC[C@@H](Nc2ncnc3[nH]cc(-c4ccc(N5CCOCC5)nc4)c23)C1 [Example 36, 1-[(3R)-3-({5-[6-(morpholin-4-yl)pyridin-3-yl]-7H-pyrrolo[2,3-d]pyrimidin-4-yl}amino)piperidin-1-yl]prop-2-en-1-one] | > 360 min
12 | C=CC(=O)N1CCC(Nc2cnc3[nH]cc(C(=O)NC4CCC4)c3n2)CC1 [Example 280, 2-[(1-acryloylpiperidin-4-yl)amino]-N-cyclobutyl-5H-pyrrolo[2,3-b]pyrazine-7-carboxamide] | > 360 min
13 | C=CC(=O)N1CC[C@]2(C)CCN(c3ncnc4[nH]ccc34)[C@@H]2C1 [Example 59, 1-((3aS,7aS)-3a-Methyl-1-(7H-pyrrolo[2,3-d]pyrimidin-4-yl)hexahydro-1H-pyrrolo[2,3-c]pyridin-6(2H)-yl)prop-2-en-1-one] | 184 min
14 | C/C=C/C(=O)N1CCC[C@@H](Nc2ncnc3[nH]ccc23)C1 [Example 95, (2E)-1-[(3R)-3-(7H-pyrrolo[2,3-d]pyrimidin-4-ylamino)piperidin-1-yl]but-2-en-1-one] | > 360 min
